Records with an inconclusive call do not appear. Active and inactive are the calls of the source.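 Rule for the calls: active = fitted curve reaches activity 50 in the expected rising direction at or below the top valid tested dose; inconclusive = no clear call, values can overlap the other calls; inactive = activity in the wrong direction, and the rest.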
The compounds below were run against Virion infectivity factor (Human immunodeficiency virus type 1 group M subtype B (isolate BH10)) + Virion infectivity factor (Human immunodeficiency virus type 1 group M subtype B (isolate BRU/LAI)) + Virion infectivity factor (Human immunodeficiency virus type 1 group M subtype B (isolate PCV12)) + Virion infectivity factor (Human immunodeficiency virus type 1 group M subtype B (isolate HXB2)) (UniProt P69720+P69721+P69722+P69723) (assay: Vif multimerization inhibitor potency, dose response, imaging, HEK293T, cherry-picks (AID 652241;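 note: imaged cell signal that rises when Vif self-association is disrupted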)). Conditions: 24 h.
Virion infectivity factor (Human immunodeficiency virus type 1 group M subtype B (isolate BH10)) + Virion infectivity factor (Human immunodeficiency virus type 1 group M subtype B (isolate BRU/LAI)) + Virion infectivity factor (Human immunodeficiency virus type 1 group M subtype B (isolate PCV12)) + Virion infectivity factor (Human immunodeficiency virus type 1 group M subtype B (isolate HXB2)), sequence (P69720 whole entry, looked up): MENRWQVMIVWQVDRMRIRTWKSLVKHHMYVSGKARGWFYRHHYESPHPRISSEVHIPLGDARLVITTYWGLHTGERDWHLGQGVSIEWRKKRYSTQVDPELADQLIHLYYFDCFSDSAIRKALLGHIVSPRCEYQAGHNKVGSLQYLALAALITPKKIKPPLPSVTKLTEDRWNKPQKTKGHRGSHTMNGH
Virion infectivity factor (Human immunodeficiency virus type 1 group M subtype B (isolate BH10)) + Virion infectivity factor (Human immunodeficiency virus type 1 group M subtype B (isolate BRU/LAI)) + Virion infectivity factor (Human immunodeficiency virus type 1 group M subtype B (isolate PCV12)) + Virion infectivity factor (Human immunodeficiency virus type 1 group M subtype B (isolate HXB2)), sequence (P69721 whole entry, looked up): as the sequence (P69720 whole entry, looked up) above
Virion infectivity factor (Human immunodeficiency virus type 1 group M subtype B (isolate BH10)) + Virion infectivity factor (Human immunodeficiency virus type 1 group M subtype B (isolate BRU/LAI)) + Virion infectivity factor (Human immunodeficiency virus type 1 group M subtype B (isolate PCV12)) + Virion infectivity factor (Human immunodeficiency virus type 1 group M subtype B (isolate HXB2)), sequence (P69722 whole entry, looked up): as the sequence (P69720 whole entry, looked up) above
Virion infectivity factor (Human immunodeficiency virus type 1 group M subtype B (isolate BH10)) + Virion infectivity factor (Human immunodeficiency virus type 1 group M subtype B (isolate BRU/LAI)) + Virion infectivity factor (Human immunodeficiency virus type 1 group M subtype B (isolate PCV12)) + Virion infectivity factor (Human immunodeficiency virus type 1 group M subtype B (isolate HXB2)), sequence (P69723 whole entry, looked up): as the sequence (P69720 whole entry, looked up) above

| SMILES | AC50 |
| --- | --- |
| Cn1nnnc1Sc1ncnc2scc(-c3ccc(Cl)cc3)c12 | 3.75 µM |
| CCOC(=O)c1cc(-c2ccccc2)sc1NC(=O)COC(=O)c1cccc(S(N)(=O)=O)c1 | 16.1 µM |
| Cc1ccnc(NC(=O)CCCOc2cc(=O)n(C)c3ccccc23)c1 | 1.79 µM |
| CCN(CC)c1ccc2cc(C(N)=O)c(=O)oc2c1 | > 19.5 µM (inactive) |
| COc1ccc(NC(=O)C2(C)Cc3c(-c4cccc(NC(C)=O)c4)ccnc3O2)cn1 (stereo unspecified) | 8.99 µM |
| O=C(Nc1ccc(-c2nc3ccc(NC(=O)c4cccs4)cc3[nH]2)cc1)c1cccs1 | 3.89 µM |
| COc1ccc(S(=O)(=O)N2c3cc(Cl)ccc3Oc3nc4ccccc4nc32)cc1 | 3.14 µM |
| CCN1C(=O)c2cccc3c(S(=O)(=O)Nc4nc(C)cs4)ccc1c23 | 15.1 µM |
| COCCNC(=O)c1nn2c(C(F)(F)F)cc(-c3ccccc3)nc2c1Cl | > 19.5 µM (inactive) |
| O=C(NC1(C(F)(F)F)Oc2ccc(Cl)cc2O1)N1CCC2(CC1)OCCO2 (stereo unspecified) | 7.65 µM |
| Cc1cc(NC(=O)CSc2nc3c(sc4ccccc43)c(=O)n2CCCN2CCOCC2)n[nH]1 | 7.05 µM |
| Cc1nc(-c2ccc(O)c(O)c2)cs1 | > 19.5 µM (inactive) |
| Oc1ccc(-c2nc(-c3ccc(O)c(O)c3)cs2)cc1 | 9.83 µM |
| CC(=O)Nc1ccc(-c2ccnc3c2CC(C(=O)NCc2ccccc2)O3)cc1 (stereo unspecified) | 1.28 µM |
| COc1cccc(N2CCN(C(=O)c3ccc(CS(=O)c4ccc(C)cc4)o3)CC2)c1 (stereo unspecified) | 12.9 µM |
| Cc1cnc(NC(=O)CN2CCN(c3ccccn3)CC2)s1 | 9.23 µM |
| COc1ccc(CC(=O)Nc2ccc(-c3noc(-c4cc(OC)c(OC)c(OC)c4)n3)cc2)cc1 | 13 µM |
| COc1cccc(-c2cc(NC=O)c3ncc(-c4cc(OC)c(OC)c(OC)c4)n3c2)c1 | 4.25 µM |
| COc1ccc(S(=O)(=O)Nc2cc3c(C(C)=O)c(C)oc3c3ccccc23)cc1 | 9.23 µM |
| COc1ccc(CCNc2nnc(Sc3nnnn3-c3ccccc3)s2)cc1OC | 5.92 µM |
| CCOC(=O)c1[nH]c2c(c1C)C(=O)CC(c1ccco1)C2 (stereo unspecified) | 5.79 µM |
| CCCSc1ccc2nc(NC(=O)OC)[nH]c2c1 | 15.4 µM |

Same assay, conditions: 24 h, at 0.75 µM (top of the series)

| SMILES | activity, higher = inhibition |
| --- | --- |
| O=C1S/C(=C/c2ccc(N3CCOCC3)o2)C(=O)N1Cc1c(F)cccc1Cl | inactive |

Same assay, conditions: 24 h, at 6.8 µM (top of the series)

| SMILES | activity, higher = inhibition |
| --- | --- |
| Oc1[nH]c(=S)sc1/C=C1\C(c2ccccc2)=Nc2ccccc21 | inactive |
| CCc1nnc(NC(=O)c2sc3nc4cc(C)ccc4cc3c2N)s1 | inactive |
| COc1cc2c3nnc(-c4ccc(F)cc4)c-3cn(Cc3ccc(F)cc3)c2cc1OC | inactive |
| O=C1Nc2ccccc2S/C1=C/Nc1cccc(Cl)c1 | inactive |
| N#Cc1cc2c(=O)n3ccccc3nc2n(-c2ccccc2Cl)c1=O | inactive |
| Cc1nc(C)n(CC(=O)N2CCCC(C(=O)c3ccc(C(F)(F)F)cc3)C2)n1 (stereo unspecified) | inactive |

Same assay, conditions: 24 h, at 19.5 µM (top of the series)

| SMILES | activity, higher = inhibition |
| --- | --- |
| O=C(Cn1c(=O)oc2cc(S(=O)(=O)N3CCCCC3)ccc21)N1CCc2ccccc21 | inactive |
| CCCn1c(=O)c(C(=O)Nc2ncccc2O)c(O)c2ccccc21 | inactive |
| COc1cccc(NC(=O)c2cc(C(=O)Nc3cccc(OC)c3)n(C)n2)c1 | inactive |
| CCOc1ncccc1C(=O)OCc1ccccc1 | inactive |
| COc1cccc(CNc2ccc3c(c2)CCC3)c1 | inactive |
| Nc1nc(-c2ccc3ccccc3c2)cs1 | inactive |
| O=C(CCCSc1nc2ccccc2c(=O)[nH]1)c1ccccc1 | inactive |
| COc1ccc([C@H]2CC(=O)C=C(c3cc4ccccc4s3)C2)cc1 | inactive |
| COC(=O)c1ccc2c(=O)n(Cc3ccco3)c(SCC(=O)Nc3cc(C)on3)nc2c1 | inactive |
| COc1ccc(-c2nnc(SCC(=O)N3CCCc4ccccc43)o2)cc1OC | inactive |
| CCN(CC(=O)Nc1c(F)cccc1F)C(=O)c1cccc(-n2cccc2)c1 | inactive |
| CNC(=O)c1ccc(NC(=O)c2cc(S(=O)(=O)N(C)C)ccc2N2CCCC2)cc1 | inactive |
| Cc1nn(C)cc1CN(C)Cc1ccc(OCC(O)CN2CCCCC2)cc1 (stereo unspecified) | inactive |
| CCOC(=O)C1(Cc2ccccc2)CCN(Cc2csc(C(C)=O)c2)CC1 | inactive |
| COc1ccccc1C(C)NC(=O)Cc1ccsc1 (stereo unspecified) | inactive |
| Nc1nonc1-c1nc2ccccc2n1CC(=O)NC1CCCC1 | inactive |
| O=C(CSc1nnc(CNc2ccc(F)cc2)o1)c1ccccc1 | inactive |
| O=C(Nc1cccc(-c2cc3ccccc3oc2=O)c1)c1ccc(Br)o1 | inactive |
| COc1ccc(-c2nc(-c3ccccn3)nc(N3CCN(C)CC3)c2C#N)cc1 | inactive |
| O=C(CCCOc1ccc(Br)cc1)NNC(=O)c1ccncc1 | inactive |
| O=C(CCc1ccccc1)Nc1ccccc1 | inactive |
| Cc1ccc(-c2nn3c(C)nnc3c3ccccc23)cc1S(=O)(=O)NCc1ccccc1 | inactive |
| CCN1c2ccccc2NC2C1C(C(C)=O)C(=O)N2c1ccc(Cl)cc1 (stereo unspecified) | inactive |

| SMILES | activity, higher = inhibition |
| --- | --- |
| CC(C)(C)NC(=O)CN(Cc1ccc(F)cc1)C(=O)Cn1nnc(-c2ccc(F)cc2)n1 | inactive |
| CCN1C(=O)c2cccc3c(S(=O)(=O)Nc4ccccc4O)ccc1c23 | inactive |
| Cc1cc(C)c(S(=O)(=O)N2CCN(S(=O)(=O)N3CCOCC3)CC2)c(C)c1 | inactive |
| CC1CN(S(=O)(=O)c2cccc(C(=O)N3CCC(C(N)=O)CC3)c2)CC(C)O1 (stereo unspecified) | inactive |
| CCn1c(/C=C/c2ccc(F)cc2)nc2ccccc2c1=O | inactive |
| O=C(NCc1ccccn1)c1ccc(Cn2c(=S)[nH]c3ccc(Br)cc3c2=O)cc1 | inactive |
| COc1ccccc1-c1cccc2nccn12 | inactive |
| CCCCn1c(-c2ccncc2)nc2c1c(=O)[nH]c(=O)n2CC(C)C | inactive |
| O=C(c1cc(-c2ccncc2)nc2ccccc12)N1CCN(Cc2ccccc2)CC1 | inactive |
| CCN(CCCNC(=O)C1CCC(=O)N1Cc1ccc(C)cc1)c1cccc(C)c1 (stereo unspecified) | inactive |
| COc1ccccc1CNC(=O)CSC1=NCCS1 | inactive |
| Cc1cccc(C)c1NC(=O)COc1ccc2c(C)c(Cc3ccccc3)c(=O)oc2c1C | inactive |
| COc1c2occc2c(OC)c2c(=O)cc(C)oc12 | inactive |
| O=C(c1cc(Cl)c(=O)n(Cc2ccccc2)c1)N1CCOCC1 | inactive |
| COCCNCC(=O)Nc1nc(C)cs1 | inactive |
| O=C(CCN1CCOCC1)Nc1ccc(Cl)cc1 | inactive |
| O=C(c1ccc2c(c1)OCO2)N(CC1CCCO1)C1(C(=O)NC2CCCC2)CCCCC1 (stereo unspecified) | inactive |
| CN(Cc1ccccc1)C(=O)CCC1CCN(C(=O)c2ccco2)CC1 | inactive |
| O=C(O)/C=C/C(=O)Nc1cccc(C(F)(F)F)c1 | inactive |
| COc1cccc(NC(=O)CSc2nnc(Cc3ccc(OC)c(OC)c3)o2)c1 | inactive |
| O=C(Nc1ccc2c(c1)nc1n2CCOC1)c1ccccc1 | inactive |
| O=S(=O)(Nc1nc2ccccc2nc1NCc1ccco1)c1ccc(Cl)cc1 | inactive |
| O=C(COC(=O)/C=C/C(=O)OCC(=O)Nc1ccccc1F)Nc1ccccc1F | inactive |

| SMILES | activity, higher = inhibition |
| --- | --- |
| COc1cc(OC)cc(C(=O)N[C@H](C(=O)Nc2ccc3c(c2)OCO3)C(C)C)c1 | inactive |
| O=C(O)c1ccc(-c2nc(-c3cccc(C(F)(F)F)c3)cs2)cc1 | inactive |
| CCOc1ccc(NC(=O)CN(C)C(=O)c2cc(S(=O)(=O)N3CCCCC3)ccc2Cl)cc1OCC | inactive |
| COc1c(Br)cc(Br)cc1/C=C1/C(=O)N=C(N)N1C | inactive |
| O=C(Nc1nn[nH]n1)c1cc(-c2ccc(Cl)c(Cl)c2Cl)nc2ccccc12 | inactive |
| CCC1(CC)NC(=O)N(CC(=O)Nc2ccc(OCc3ccccc3)cc2)C1=O | inactive |
| COc1ccc(CN(C(=O)Cn2nnc(-c3ccc(C)o3)n2)C(C(=O)NCC2CCCO2)c2ccco2)cc1 (stereo unspecified) | inactive |
| O=S(=O)(Nn1cnnc1)c1ccccc1 | inactive |
| CCOC(=O)c1nc(Nc2ccc(C(=O)OC)cc2)c2ccccc2n1 | inactive |
| CCN1C(=O)NC(c2ccccc2)C1=O (stereo unspecified) | inactive |
| Cc1c(NC(=O)CC(O)(C(F)(F)F)C(F)(F)F)c(=O)n(-c2ccccc2)n1C | inactive |
| CC1CN(S(=O)(=O)c2ccc(C(=O)NCCCn3ccnc3)cc2)CC(C)O1 (stereo unspecified) | inactive |
| Cc1ccc(Nc2cc(=O)[nH]c(=O)[nH]2)cc1C | inactive |
| COc1ccccc1C(=O)COC(=O)C1(C)CC1(Cl)Cl (stereo unspecified) | inactive |
| CN(C)c1ccc(/C=C/C(=O)c2ccc3c(c2)OCO3)cc1 | inactive |
| CC(OC(=O)c1c[nH]c2ccccc12)C(=O)N1CCCC1 (stereo unspecified) | inactive |
| O=C(CCCCn1ccc(=O)[nH]c1=O)Nc1ccc(O)c(C(=O)O)c1 | inactive |
| COc1ccc(-c2cc(C(=O)Nc3ccc4c(c3)OCO4)no2)cc1 | inactive |
| CCCCCCn1c(N(CC)CC)nc2c1c(=O)[nH]c(=O)n2C | inactive |
| CCOC(=O)C1CCCN(CC(=O)Nc2c(C(=O)OC)[nH]c3ccc(Cl)cc23)C1 (stereo unspecified) | inactive |
| COc1cc(OC)cc(C(=O)NC(C(=O)Nc2ccc3c(c2)OCO3)C(C)C)c1 (stereo unspecified) | inactive |

— PubChem BioAssay AID652241 (Broad Institute, 2013)
